Test results: patent US20260144769A1, “4-PHENYLBUTYRATE RESTORED GABA UPTAKE AND REDUCED SEIZURES IN SLC6A1 VARIANT-MEDIATED DISORDERS” (Vanderbilt University, priority 2022, published 2026)

Assays:
[1] = cited from earlier work
GAT-1 E16X [2] = target: T1, GAT-1 E16X (Rattus norvegicus, UniProt P23978); experiment: 3H GABA uptake, HEK293T, mutant cDNA alone ("homozygous"); format: cell-based; design: with only 15 amino acids left in the protein peptide; expressed in transfected cells; host or cells: HEK293T cells; details: PBA 2 mM, 24 hrs
Procedure: GABA uptake activity was measured by the high-throughput 3H radio-labeling GABA uptake on a liquid scintillator with QuantaSmart. […] HEK293T cells were transfected with the wildtype or the mutant GAT-1^YFP cDNAs alone for 48 hr. […] HEK293T cells were transfected with the wildtype GAT-1^YFP alone or in mixture of the wildtype or the mutant cDNAs for 48 hr. In the mixed condition, the ratio of the wildtype GAT-1 with pcDNA or the mutant cDNAs are 1:1 with the total cDNA amount of 0.5 μg. […] Both wt and the mutant were normalized to its own DMSO treated conditions. 966 stands for the wildtype treated with CI-966 (50 μM) while 711 stands for NNC-711 (35 μM). (N=4-7 different transfections. In FIG. 4A and FIG. 4B, *P<0.05, **P<0.01, ***p<0.001 vs. wt 0. In FIG. C and FIG. 4D, *P<0.05, **P<0.01, ***p<0.001 vs. its own DMSO treated. In FIG. 4C, ns stands for no significance. One-way analysis of variance (ANOVA) and Newman-Keuls test. Values were expressed as mean±S.E.M.
The plasmid cDNA encoding enhanced yellow fluorescent protein (EYFP)-tagged rat GAT-1 has been previously described. […]
(§1) Briefly, cells were cultured in […] dishes for 3 days before the GABA uptake experiment in DMEM with 10% fetal bovine serum and 1% penicillin/streptomycin. […] Glacial acetic acid was added, and lysates were then determined on a liquid scintillator with QuantaSmart. […]

GAT-1 E16X [3] = target: T1, GAT-1 E16X; experiment: 3H GABA uptake, corrected iPSC astrocytes transfected with GAT-1^YFP cDNA; format: cell-based; design: The coding region of rGAT-1 was inserted into pEYFP-C1 (Clontech, Palo Alto, CA); expressed in transfected cells; host or cells: human astrocytes differentiated from CRISPR-corrected patient iPSCs; details: 2 mM PBA, 24 hrs
Procedure: (§2) Live images of human neural progenitor cells (NPCs), astrocytes and GABAergic inhibitory neurons differentiated from the human induced pluripotent stem cells (iPSCs) on the day of experiment. […] The DMSO treated corrected or patient cells was taken as 1. […] GABA flux was measured after 30 min transport at room temperature. The influx of GABA, expressed in pmol/μg protein/min, was averaged from duplicates for each condition and for each transfection. The average counting was DMSO treated condition taken as 1. In FIG. 5B, FIG. 5D and FIG. 5F, 966 stands for CI-966 (50 μM) and 711 stands for NNC-711 (35 μM) that was applied 30 min to the astrocytes transfected with the wildtype GAT-1^YFP before preincubation and removed during preincubation. In FIGS. 5B and D, ***p<0.001 vs. corrected DMSO treated. § § <0.01, § § § p<0.001 vs. patient DMSO treated. […] In FIGS. 5B-E, n=4-8 batches of cells. In FIG. 5F, n=4-5 different transfections). Unpaired t test was used for FIG. 5C and FIG. 5E. […] Values were expressed as mean±S.E.M.). […]
as §1

GAT-1 L460R = GAT-1 L460R (Rattus norvegicus, UniProt P23978, L460R); experiment: as above; format: cell-based; design: The coding region of rGAT-1 was inserted into pEYFP-C1 (Clontech, Palo Alto, CA); expressed in transfected cells; host or cells: human astrocytes differentiated from CRISPR-corrected patient iPSCs; details: 2 mM PBA, 24 hrs
Procedure: as §2, §1

O=C(O)CCCc1ccccc1 [PBA, 4-phenylbutyric acid]
oral bioavailability [1]: orally bioavailable
GABA uptake normalized to its own DMSO treated condition (GAT-1 E16X [2]): 0.813±0.06
GABA uptake normalized to its DMSO treated (GAT-1 E16X [3]): 1.182±0.025
GABA uptake normalized to its DMSO treated (GAT-1 L460R): 1.18±0.045
